This is an account of results in ChEMBL document CHEMBL1201862, “PubChem BioAssay data set” (2004).

Test [1] is described as follows: AlphaScreen signal interference compounds, dose response, artefact control for ARNT-TACC3 interaction inhibitor project, biochemical, luminescence, cherry-pick (AID 651705).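 Note: AlphaScreen bead proximity signal that flags compounds interfering with the detection technology; potency reflects signal decrease which marks the compound as an assay artifact.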 Format: functional.
Test [2] relates to H9c2. Kind of test: cells. It counts as functional, cell-based. To be noted: Rattus norvegicus, H9c2, Myocardium.
Test [3] addresses Beta-galactosidase (Escherichia coli, UniProt Q8VNN2). Kind of test: beta-galactosidase enzyme inhibitors and activators, dose response, artefact control for CCR6 antagonist project, biochemical, E. coli enzyme, set 3 (AID 504712). It counts as functional.
Test [4] has as its target T1, Microphthalmia-associated transcription factor (Homo sapiens, UniProt O75030).
T1 sequence (O75030 whole entry): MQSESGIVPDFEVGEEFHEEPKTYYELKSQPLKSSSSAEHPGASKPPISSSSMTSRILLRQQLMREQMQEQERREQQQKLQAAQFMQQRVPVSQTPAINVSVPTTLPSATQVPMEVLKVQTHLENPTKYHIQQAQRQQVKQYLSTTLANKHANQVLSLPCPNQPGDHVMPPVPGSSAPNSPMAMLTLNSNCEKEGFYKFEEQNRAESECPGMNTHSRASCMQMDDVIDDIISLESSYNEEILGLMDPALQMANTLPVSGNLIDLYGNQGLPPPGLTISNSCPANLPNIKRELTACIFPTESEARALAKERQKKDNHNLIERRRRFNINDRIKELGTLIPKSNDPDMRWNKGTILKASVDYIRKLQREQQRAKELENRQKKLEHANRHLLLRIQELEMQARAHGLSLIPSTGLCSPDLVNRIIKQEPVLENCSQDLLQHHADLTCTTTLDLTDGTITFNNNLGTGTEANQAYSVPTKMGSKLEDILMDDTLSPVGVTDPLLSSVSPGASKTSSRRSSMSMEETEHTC
Kind of test: TRPM1 promoter luciferase signal decrease, dose response, MITF inhibitor project, cell-based, SK-MEL-5, cherry-picked, set 3 (AID 493073).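 Note: SK-MEL-5 melanoma cells with luciferase driven by the MITF target TRPM1 promoter.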 Format: functional.

For test [5], the target named is Troponin, cardiac muscle (Homo sapiens, UniProt P19429+P45379+P63316). Kind of test: Fluorescence-based biochemical high throughput dose response assay for activators of the calcium sensitivity of cardiac Regulated Thin Filaments (RTF). [Related pubchem assays (depositor defined):AID493008, AID493018, AID504382, AID504383]. Format: protein-complex assay.
Test [6] has as its target Nonstructural protein 1 (Influenza A virus, UniProt Q194T2). It counts as functional, Influenza A virus (A/California/07/2009(H1N1)).
Test [7] deals with T2, Carboxy-terminal domain RNA polymerase II polypeptide A small phosphatase 1 (Homo sapiens, UniProt Q9GZU7).
T2 sequence (Q9GZU7 whole entry): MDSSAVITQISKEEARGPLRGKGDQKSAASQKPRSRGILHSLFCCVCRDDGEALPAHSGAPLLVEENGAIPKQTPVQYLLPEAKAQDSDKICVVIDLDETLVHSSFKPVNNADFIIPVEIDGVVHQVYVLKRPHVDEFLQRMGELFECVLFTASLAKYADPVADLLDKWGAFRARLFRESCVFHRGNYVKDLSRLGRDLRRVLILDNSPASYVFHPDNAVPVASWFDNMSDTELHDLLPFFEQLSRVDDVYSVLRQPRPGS
Kind of test: inhibitors of CTDSP1, concentration-response testing, biochemical assay, absorbance-based, actives from ultra-high-throughput screening (AID 540297). Format: functional.

For test [8], the target named is T3, Voltage-gated N-type calcium channel alpha-1B subunit/Amyloid beta A4 precursor protein-binding family A member 1 (Homo sapiens, UniProt Q00975+Q02410). It counts as protein assay.
T3 sequence (Q00975 whole entry): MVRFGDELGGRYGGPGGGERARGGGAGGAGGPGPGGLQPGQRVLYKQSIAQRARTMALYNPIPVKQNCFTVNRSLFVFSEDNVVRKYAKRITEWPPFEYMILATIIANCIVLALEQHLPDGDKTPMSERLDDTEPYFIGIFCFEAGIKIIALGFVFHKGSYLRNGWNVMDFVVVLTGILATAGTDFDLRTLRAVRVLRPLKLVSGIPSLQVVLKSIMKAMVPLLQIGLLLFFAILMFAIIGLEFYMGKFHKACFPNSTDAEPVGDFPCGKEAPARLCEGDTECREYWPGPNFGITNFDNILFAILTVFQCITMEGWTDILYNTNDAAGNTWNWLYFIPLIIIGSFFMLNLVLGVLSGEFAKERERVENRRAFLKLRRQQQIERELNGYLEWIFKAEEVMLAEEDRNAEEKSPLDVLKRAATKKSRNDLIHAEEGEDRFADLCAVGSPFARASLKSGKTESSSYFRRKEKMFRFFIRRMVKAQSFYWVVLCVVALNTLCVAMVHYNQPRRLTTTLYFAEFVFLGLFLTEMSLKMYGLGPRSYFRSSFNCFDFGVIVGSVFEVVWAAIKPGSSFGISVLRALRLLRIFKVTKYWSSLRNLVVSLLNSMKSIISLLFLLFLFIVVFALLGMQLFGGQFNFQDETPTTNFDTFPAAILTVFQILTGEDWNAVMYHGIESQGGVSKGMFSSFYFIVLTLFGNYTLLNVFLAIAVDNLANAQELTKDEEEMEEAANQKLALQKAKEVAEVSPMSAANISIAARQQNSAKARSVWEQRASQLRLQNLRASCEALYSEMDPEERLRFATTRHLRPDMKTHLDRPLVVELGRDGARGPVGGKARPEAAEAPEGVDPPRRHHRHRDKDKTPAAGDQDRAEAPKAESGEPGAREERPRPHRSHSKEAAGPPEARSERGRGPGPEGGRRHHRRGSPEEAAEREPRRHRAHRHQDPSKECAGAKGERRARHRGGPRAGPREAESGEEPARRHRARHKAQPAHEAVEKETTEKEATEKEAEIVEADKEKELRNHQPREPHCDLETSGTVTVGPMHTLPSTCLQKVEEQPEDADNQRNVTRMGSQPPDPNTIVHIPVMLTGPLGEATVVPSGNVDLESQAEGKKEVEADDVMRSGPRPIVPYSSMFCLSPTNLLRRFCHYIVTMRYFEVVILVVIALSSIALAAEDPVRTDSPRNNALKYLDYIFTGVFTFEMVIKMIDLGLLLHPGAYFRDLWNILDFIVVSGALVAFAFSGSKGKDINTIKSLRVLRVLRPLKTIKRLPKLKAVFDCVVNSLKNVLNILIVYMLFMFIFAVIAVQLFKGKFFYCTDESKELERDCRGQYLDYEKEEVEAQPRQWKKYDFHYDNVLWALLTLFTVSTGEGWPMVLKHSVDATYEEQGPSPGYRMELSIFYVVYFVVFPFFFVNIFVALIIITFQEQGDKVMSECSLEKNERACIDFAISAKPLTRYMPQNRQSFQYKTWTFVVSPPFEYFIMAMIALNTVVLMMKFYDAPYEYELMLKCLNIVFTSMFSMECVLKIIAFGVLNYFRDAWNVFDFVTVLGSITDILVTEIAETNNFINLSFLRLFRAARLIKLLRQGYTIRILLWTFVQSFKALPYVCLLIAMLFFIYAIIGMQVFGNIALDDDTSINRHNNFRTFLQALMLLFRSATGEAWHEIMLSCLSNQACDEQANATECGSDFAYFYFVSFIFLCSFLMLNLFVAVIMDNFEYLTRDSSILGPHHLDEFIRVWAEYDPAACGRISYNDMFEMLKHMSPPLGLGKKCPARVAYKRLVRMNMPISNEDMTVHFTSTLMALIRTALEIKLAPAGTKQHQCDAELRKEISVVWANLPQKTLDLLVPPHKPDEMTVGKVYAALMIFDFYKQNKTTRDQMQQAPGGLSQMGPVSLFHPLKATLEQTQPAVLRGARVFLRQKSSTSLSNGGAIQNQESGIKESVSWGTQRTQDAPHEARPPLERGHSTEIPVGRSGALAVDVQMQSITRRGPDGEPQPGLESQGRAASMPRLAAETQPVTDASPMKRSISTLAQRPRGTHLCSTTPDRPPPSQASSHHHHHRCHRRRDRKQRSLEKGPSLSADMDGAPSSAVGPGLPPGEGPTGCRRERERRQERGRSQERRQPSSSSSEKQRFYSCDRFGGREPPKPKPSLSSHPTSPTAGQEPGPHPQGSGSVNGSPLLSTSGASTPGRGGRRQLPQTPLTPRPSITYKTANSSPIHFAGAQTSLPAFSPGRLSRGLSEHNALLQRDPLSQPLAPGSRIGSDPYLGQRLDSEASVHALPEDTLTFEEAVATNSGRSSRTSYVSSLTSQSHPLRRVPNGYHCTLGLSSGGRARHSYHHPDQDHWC
T3 sequence (Q02410 whole entry): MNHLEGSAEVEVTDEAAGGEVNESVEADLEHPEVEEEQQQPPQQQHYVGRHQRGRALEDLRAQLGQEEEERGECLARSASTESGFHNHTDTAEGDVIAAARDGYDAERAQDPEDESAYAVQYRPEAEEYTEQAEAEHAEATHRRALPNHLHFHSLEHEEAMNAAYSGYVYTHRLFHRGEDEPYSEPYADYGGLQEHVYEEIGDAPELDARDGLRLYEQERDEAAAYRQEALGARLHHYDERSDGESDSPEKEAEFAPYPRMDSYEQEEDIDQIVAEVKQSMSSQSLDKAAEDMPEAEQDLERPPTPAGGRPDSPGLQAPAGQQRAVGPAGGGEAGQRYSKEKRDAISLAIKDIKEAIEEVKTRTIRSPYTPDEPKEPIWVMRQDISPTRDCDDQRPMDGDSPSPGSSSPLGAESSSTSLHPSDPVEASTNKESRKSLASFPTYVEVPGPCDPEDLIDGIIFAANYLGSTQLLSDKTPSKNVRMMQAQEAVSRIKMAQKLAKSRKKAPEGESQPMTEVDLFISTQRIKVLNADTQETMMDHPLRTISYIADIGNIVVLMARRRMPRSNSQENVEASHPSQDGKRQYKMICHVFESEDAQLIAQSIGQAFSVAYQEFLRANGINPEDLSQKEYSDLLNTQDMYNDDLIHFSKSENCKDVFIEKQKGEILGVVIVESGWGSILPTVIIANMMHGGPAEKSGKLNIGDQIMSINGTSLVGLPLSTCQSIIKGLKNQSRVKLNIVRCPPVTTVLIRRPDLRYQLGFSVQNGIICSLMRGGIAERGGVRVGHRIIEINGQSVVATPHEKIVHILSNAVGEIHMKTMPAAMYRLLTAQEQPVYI
For test [9], the target named is T3, Voltage-gated N-type calcium channel alpha-1B subunit/Amyloid beta A4 precursor protein-binding family A member 1. Format: protein assay. This is another data set of the same source.
Test [10] concerns the target T4, RNA-binding protein pos-1 (Caenorhabditis elegans, UniProt G5EF15).
T4 sequence (G5EF15 whole entry): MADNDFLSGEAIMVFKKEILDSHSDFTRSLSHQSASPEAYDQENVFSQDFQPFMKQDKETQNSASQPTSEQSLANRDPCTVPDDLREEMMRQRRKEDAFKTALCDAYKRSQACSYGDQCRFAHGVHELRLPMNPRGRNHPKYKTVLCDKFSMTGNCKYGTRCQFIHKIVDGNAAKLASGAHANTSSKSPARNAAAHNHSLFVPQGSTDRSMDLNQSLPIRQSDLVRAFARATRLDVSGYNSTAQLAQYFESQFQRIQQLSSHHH
Kind of test: inhibitors of POS-1/mex-3 RNA binding, dose response, biochemical, fluorescence polarization (AID 1964).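 Note: purified POS-1 fused to maltose binding protein made in E. coli; potency of compounds blocking POS-1 binding to fluorescent RNA.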 A general note: Fluorescence polarisation rises when a labelled molecule tumbles more slowly, as on binding a larger partner.

The nature of test [11]: Luminescence Cell-Based Dose Response HTS to Identify Activators of Luciferase Translation or Activity in H4 […] Cells. [Related pubchem assays: 1829 (Project Summary), 1814 (Primary HTS)]. It counts as functional.
The test system of test [12] is H4. Kind of test: Luminescence Cell-Based Dose Response HTS to Identify Activators of 5'UTR Stem-Loop Driven Prion Protein mRNA Translation in H4 Neuroglioblastoma Cells. [Related pubchem assays: 1829 (Project Summary), 1814 (Primary HTS)]. It counts as functional. To be noted: Homo sapiens.
The nature of test [13]: Luminescence Cell-Based Dose Confirmation HTS to Identify Activators of 5'UTR Stem-Loop Driven Alpha-Synuclein mRNA Translation in H4 Neuroglioblastoma Cells. [Related pubchem assays: 1829 (Project Summary), 1814 (Primary HTS)]. Format: functional.
Test [14] concerns the target T5, Zinc finger protein mex-5 (Caenorhabditis elegans, UniProt Q9XUB2).
T5 sequence (Q9XUB2 whole entry): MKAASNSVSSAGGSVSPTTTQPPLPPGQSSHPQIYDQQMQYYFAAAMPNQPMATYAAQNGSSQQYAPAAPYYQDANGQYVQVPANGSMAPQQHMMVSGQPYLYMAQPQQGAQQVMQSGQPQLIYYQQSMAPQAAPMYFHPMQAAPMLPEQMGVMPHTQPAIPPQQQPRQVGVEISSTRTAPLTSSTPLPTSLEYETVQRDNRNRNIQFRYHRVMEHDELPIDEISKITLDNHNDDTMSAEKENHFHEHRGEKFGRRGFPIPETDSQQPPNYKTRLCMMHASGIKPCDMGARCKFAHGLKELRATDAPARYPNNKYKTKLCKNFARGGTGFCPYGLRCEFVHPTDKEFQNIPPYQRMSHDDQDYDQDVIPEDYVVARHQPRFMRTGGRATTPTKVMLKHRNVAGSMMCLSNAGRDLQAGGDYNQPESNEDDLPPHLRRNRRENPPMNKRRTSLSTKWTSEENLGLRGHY
Kind of test: MEX-5/TCR-2 RNA interaction inhibitors, dose response, biochemical, C. elegans, fluorescence polarization (AID 1960).

Test [15] addresses T6, Hexokinase-1 (Homo sapiens, UniProt P19367).
T6 sequence (P19367 whole entry): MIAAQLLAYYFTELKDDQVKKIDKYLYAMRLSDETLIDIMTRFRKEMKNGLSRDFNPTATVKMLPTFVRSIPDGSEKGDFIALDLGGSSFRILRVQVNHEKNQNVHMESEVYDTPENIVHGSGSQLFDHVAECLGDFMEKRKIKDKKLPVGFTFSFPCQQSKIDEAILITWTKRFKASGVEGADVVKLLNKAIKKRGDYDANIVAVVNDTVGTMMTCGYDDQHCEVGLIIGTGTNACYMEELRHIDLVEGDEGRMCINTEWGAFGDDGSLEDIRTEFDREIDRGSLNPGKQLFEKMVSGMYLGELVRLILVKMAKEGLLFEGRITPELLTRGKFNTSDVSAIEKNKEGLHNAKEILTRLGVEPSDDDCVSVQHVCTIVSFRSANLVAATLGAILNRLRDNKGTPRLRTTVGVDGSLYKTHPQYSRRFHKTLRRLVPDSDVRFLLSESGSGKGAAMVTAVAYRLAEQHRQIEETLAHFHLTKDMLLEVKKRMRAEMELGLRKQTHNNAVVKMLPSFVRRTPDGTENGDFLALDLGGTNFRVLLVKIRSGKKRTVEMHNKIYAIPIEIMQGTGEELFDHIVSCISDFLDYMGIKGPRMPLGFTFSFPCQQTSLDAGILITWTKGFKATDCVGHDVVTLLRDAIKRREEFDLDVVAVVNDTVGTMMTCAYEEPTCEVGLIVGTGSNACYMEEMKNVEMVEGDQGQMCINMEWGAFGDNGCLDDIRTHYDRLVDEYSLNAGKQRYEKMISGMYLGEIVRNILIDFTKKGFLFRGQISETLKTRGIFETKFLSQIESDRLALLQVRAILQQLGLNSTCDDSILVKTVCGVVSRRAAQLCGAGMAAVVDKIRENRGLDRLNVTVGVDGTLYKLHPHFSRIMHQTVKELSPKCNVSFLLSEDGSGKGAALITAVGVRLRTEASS
Kind of test: hexokinase 1 activators, dose response, selectivity assay for HKDC1 activator project, biochemical (AID 504762). Format: functional.

The target in test [16] is T7, Hexokinase HKDC1 (Homo sapiens, UniProt Q2TB90).
T7 sequence (Q2TB90 whole entry): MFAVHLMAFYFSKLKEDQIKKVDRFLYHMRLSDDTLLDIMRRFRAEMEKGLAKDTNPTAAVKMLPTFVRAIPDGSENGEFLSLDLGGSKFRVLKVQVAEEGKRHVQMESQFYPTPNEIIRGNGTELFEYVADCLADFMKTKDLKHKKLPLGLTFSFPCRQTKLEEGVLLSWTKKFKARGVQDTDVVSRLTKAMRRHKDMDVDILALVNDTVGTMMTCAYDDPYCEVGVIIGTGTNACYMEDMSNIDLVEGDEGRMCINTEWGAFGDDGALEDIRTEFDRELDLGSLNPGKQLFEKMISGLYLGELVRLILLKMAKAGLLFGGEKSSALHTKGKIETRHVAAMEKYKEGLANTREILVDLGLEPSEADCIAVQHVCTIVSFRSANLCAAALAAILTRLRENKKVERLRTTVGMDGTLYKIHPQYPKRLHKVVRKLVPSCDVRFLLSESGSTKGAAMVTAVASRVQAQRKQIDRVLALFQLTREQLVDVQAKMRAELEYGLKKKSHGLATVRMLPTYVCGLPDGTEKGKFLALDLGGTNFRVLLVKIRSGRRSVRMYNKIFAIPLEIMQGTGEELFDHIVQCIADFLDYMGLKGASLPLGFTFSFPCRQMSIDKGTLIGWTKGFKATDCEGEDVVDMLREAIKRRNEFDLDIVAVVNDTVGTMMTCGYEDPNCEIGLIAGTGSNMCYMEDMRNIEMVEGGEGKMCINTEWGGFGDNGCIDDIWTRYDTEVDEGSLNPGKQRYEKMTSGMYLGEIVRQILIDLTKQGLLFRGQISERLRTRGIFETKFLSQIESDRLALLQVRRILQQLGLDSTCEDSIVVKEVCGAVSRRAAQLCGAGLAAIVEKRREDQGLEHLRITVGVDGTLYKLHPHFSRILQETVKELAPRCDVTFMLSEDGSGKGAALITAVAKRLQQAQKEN
Kind of test: HKDC1 hexokinase activators, dose response, biochemical, W721R variant (AID 504730). Format: functional.

Calls of active or inactive are those of the source. Some results are limits rather than exact numbers.

Chain of Beta-galactosidase (Q8VNN2 whole entry): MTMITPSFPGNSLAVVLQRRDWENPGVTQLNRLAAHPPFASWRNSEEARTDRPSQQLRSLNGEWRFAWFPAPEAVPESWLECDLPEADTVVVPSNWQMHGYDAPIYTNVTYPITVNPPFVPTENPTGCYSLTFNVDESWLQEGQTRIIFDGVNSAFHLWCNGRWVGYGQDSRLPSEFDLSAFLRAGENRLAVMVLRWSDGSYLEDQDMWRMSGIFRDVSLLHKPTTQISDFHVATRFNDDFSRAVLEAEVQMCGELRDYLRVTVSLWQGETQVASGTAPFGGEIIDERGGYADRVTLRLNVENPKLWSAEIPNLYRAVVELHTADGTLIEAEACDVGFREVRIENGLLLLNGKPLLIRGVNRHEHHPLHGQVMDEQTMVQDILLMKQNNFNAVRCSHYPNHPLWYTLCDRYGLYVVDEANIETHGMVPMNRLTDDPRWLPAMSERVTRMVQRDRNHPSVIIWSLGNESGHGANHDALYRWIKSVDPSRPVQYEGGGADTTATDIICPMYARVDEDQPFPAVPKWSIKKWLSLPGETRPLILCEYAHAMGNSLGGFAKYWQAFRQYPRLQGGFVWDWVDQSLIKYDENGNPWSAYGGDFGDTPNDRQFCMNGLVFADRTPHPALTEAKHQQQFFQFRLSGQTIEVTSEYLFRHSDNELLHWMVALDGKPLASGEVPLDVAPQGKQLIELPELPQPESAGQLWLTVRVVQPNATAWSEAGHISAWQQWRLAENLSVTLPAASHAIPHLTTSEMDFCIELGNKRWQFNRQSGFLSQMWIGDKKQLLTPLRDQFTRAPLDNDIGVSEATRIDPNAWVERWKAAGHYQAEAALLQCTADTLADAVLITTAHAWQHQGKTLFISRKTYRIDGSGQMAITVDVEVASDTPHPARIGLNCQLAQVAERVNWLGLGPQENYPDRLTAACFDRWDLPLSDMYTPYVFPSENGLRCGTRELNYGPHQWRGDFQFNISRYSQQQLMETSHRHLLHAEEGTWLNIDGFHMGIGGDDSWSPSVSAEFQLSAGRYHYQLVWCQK
Chain of Nonstructural protein 1 (Q194T2 whole entry, the tested form may be a part): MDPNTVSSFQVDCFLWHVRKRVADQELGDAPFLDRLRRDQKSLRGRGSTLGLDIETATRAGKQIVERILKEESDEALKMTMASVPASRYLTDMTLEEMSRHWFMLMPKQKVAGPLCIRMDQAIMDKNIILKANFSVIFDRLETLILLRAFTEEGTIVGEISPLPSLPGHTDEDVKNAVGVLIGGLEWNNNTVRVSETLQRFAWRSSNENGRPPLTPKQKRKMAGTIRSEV

A word on the AC50: it is the concentration giving half of the maximal activity seen. The term IC50 denotes the point on the concentration scale where inhibition reaches its midpoint. For `CC(Oc1ccccc1)C(=O)Nc1nc(-c2ccccn2)cs1` (stereo not drawn), the half-maximal activity concentration (AC50) in test [1] was 84.7 µM (active); in [4] it was 14 µM (active). Moreover, the IC50 in [2] was > 79 µM (inactive); in [3] it was > 66.6 µM (inactive).

In general, EC50 refers to the concentration needed to bring the measured effect to its halfway point. Regarding `C=COc1ccc(N2C(=O)c3ccccc3OC2C)cc1` (stereo not drawn), the EC50 in test [5] is > 71.4 µM (inactive).

In the case of `C/C(=N\NC(=O)C1CCCN(S(=O)(=O)c2ccccc2)C1)c1ccccn1` (stereo not drawn), the AC50 in test [1] is 77.8 µM (active). In addition, the values for the half-maximal inhibitory concentration (IC50) in [6] and in [3] were 22.2 µM (active) and > 66.6 µM (inactive), respectively.

`COc1ccc2nc(C)c3cc(C)oc3c2c1`: the EC50 in [5] was > 71.4 µM (inactive).

Take `CC(/C=C/c1ccco1)=N\NC(=O)c1cccnc1`: the IC50 in test [7] was 21.3 µM (active); in test [8] it was 9.19 µM (active); in test [9] it was 17.8 µM (active).

Take `Cc1cc(/C=C2\SC(=S)N(Cc3ccco3)C2=O)c(C)n1-c1cccnc1`: the EC50 in [10] is 11.3 µM (inconclusive); in test [11], 119 µM (active); in test [12] it was 3.71 µM (active); in [13], 45.2 µM (active); in test [5] it was > 2.65 µM (active); in test [14], 20.2 µM (inconclusive).

`Cc1ccc(C2=NN=C(Nc3ccc(F)cc3)SC2)cc1`: the values for the EC50 in test [15] and in test [16] were 17.8 µM (active) and 10 µM (active), respectively.

For `COC(=O)c1c(NC(C)=O)sc(Cc2ccccc2)c1C`, the EC50 in test [15] was 39.4 µM (inactive); in test [16], 23.9 µM (inactive).

As to `C[N+](C)(CCCCCC[N+](C)(C)CCCN1C(=O)c2cccc3cccc(c23)C1=O)CCCN1C(=O)c2cccc3cccc(c23)C1=O`, the EC50 is 17.9 µM (active) in test [15] and 20.4 µM (inactive) in [16].

Regarding `N#CC1=C2SCN(c3ccc(F)cc3)CN2C(=O)CC1c1cccc(F)c1` (stereo not drawn), the values for the IC50 in test [8] and in test [9] were 1.59 µM (active) and > 50 µM (inactive), respectively.

For the compound `COc1ccccc1NS(=O)(=O)c1cc(NC(=O)c2ccncc2)ccc1N1CCCC1`, the results for the IC50 in test [8] and in [9] were 29 µM (active) and > 50 µM (inactive), respectively.
